What was measured:
Format in all cases: cell-based, human
p53 = assay: Western blot of total and acetylated[K382] p53 in UMSCC47 cells; conditions: 24 hours; for acetylated p53 levels / p53 accumulation (total p53 level): UMSCC47, 10 μM
Description: (§1) FIG. 5A is an schematic illustration showing that CH1 has two distinct target sites. HIF1-α/p300 structures were used as guides to design helix mimetics that target site A and site B on the CH1 domain of p300. […] CH1iA (SEQ ID NO: 7) and CH1iB (SEQ ID NO: 8) were designed to mimic two helices from the C-terminal domain of HIF-1α. The peptides were locked into the helical conformation by the hydrogen bond surrogate method. FIG. 5C is a graph of p53 activity. UMSCC47 (left) and UMSCC74A (right) cells were co-transfected with a p53 Firefly luciferase reporter plasmid and a control Renilla luciferase plasmid. After 24 hours, cells were treated with control (vehicle), CH1iA (10 μM), or CH1iB (10 μM) for 24 hours. Firefly luciferase activity was normalized to Renilla luciferase activity to control for transfection efficiency. Data is normalized to control and presented as mean±SEM. *P<0.05, n=3. FIG. 5D is a western blot showing total and acetylated p53 levels. UMSCC47 (left) and UMSCC74A (right) cells were treated with control (vehicle), CH1iA (10 μM), or CH1iB (10 μM) for 24 hours. Cell lysates were immunoblotted with anti-p53 or anti-acetylated[K382]-p53 antibody. FIG. 5E is a pair of graphs of p300, p53, p21, miR-34a, and miR-200c expression. UMSCC47 (top panel) and UMSCC74A (bottom panel) cells were treated with control (vehicle), CH1iA (10 μM), or CH1iB (10 μM) for 24 hours. mRNA expression was determined using qPCR with validated TaqMan assays. Data is normalized to control cells and presented as mean±SEM. *P<0.01, control vs. CH1iB, n=3. FIG. 5F is a western blot showing HPV16 E6-p300 association. UMSCC47 cells were treated with control (vehicle), CH1iA (10 μM), or CH1iB (10 μM) for 24 hours. Cell lysates were extracted, immunoprecipitated with anti-p300 antibody, and immunoblotted with anti-E6 antibody. Cell lysates were immunoblotted with anti-E6 or anti-p300 antibody for input control. FIG. 5G is a set of graphs of cell proliferation. UMSCC47 (top left panel), UMSCC74A (top right panel), and IMR90 (human normal fibroblasts) (bottom panel) cells were treated with control (vehicle), CH1iA (10 μM), CH1iB (10 μM), cis-platinum (10 μM), CH1iA (10 μM) and cis-platinum (10 μM), or CH1iB (10 μM) and cis-platinum (10 μM) for 24, 48, or 72 hours. Data is normalized to Day 0 and presented as mean±SEM. *P<0.01, control vs. CH1iB or cis-platinum, **P<0.01 CH1iB or cis-platinum vs. CH1iB and cis-platinum, n=6.
FIG. 6A is a western blot showing total and acetylated p53 levels. UMSCC47 cells were treated with control (vehicle), CH1iB (10 μM), cis-platinum (10 μM), or CH1iB (10 μM) and cis-platinum (10 μM) for 24 hours. Cell lysates were immunoblotted with anti-p53 or anti-acetylated[K382]-p53 antibody. FIG. 6B is a graph of p53 transcriptional activity. UMSCC47 cells were co-transfected with a p53 Firefly luciferase reporter plasmid and a control Renilla luciferase plasmid. After 24 hours, cells were treated with control (vehicle), CH1iB (10 μM), cis-platinum (10 μM), or CH1iB (10 μM) and cis-platinum (10 μM) for 24 hours. Firefly luciferase activity was normalized to Renilla luciferase activity to control for transfection efficiency. Data is normalized to control and presented as mean±SEM. *P<0.01, control vs. CH1iB, cis-platinum or CH1iB+cis-platinum, **P<0.01 CH1iB or cis-platinum vs. CH1iB+cis-platinum, n=5. FIG. 6C is a graph of p300, p53, p21, miR-34a, and miR-200c expression. UMSCC47 cells were treated with control (vehicle), CH1iB (10 μM), cis-platinum (10 μM), or CH1iB (10 μM) and cis-platinum (10 μM) for 24 hours. mRNA expression was determined using qPCR with validated TaqMan assays. Data is normalized to control cells and presented as mean±SEM. *P<0.01, control vs. CH1iB, cis-platinum or CH1iB+cis-platinum, **P<0.01 CH1iB or cis-platinum vs. CH1iB+cis-platinum, n=3. FIG. 6D is a pair of graphs of apoptosis. […]

UMSCC74A cells = assay: Cell proliferation (MTT) in UMSCC74A cells; conditions: for cell proliferation, single-agent: UMSCC74A (HPV-negative), 10 μM; for effect on efficacy of cis-platinum on proliferation: UMSCC74A, 10 μM with cis-platinum 10 μM
Description: as §1, with “Data is normalized to Day 0 and presented as mean±SEM. *P<0.01, control vs. CH1iB or cis-platinum, **P<0.01 CH1iB or cis-platinum vs. CH1iB and cis-platinum, n=6.” left out
Cell proliferation was assessed using the MTT reagent (Roche Molecular Biochemicals, Nutley, N.J.) to detect metabolic active cells. Absorbance was measured at 570 nm in the Spectra Max 190 ELISA reader (Molecular Devices, Sunnyvale, Calif.) after overnight incubation. […] Apoptotic cells were analyzed using BD FACS Calibur (BD Biosciences Corporation, Franklin Lakes, N.J.) at The Ohio State University Comprehensive Cancer Center Analytical Cytometry Core.

[1] = test system: p53-regulated genes (p21, miR-34a, miR-200c); assay: qPCR expression of p300, p53, p21, miR-34a, miR-200c in UMSCC47 cells; conditions: UMSCC47, 10 μM, 24 hours, vs control
Description: FIG. 5A is an schematic illustration showing that CH1 has two distinct target sites. HIF1-α/p300 structures were used as guides to design helix mimetics that target site A and site B on the CH1 domain of p300. […] CH1iA (SEQ ID NO: 7) and CH1iB (SEQ ID NO: 8) were designed to mimic two helices from the C-terminal domain of HIF-1α. The peptides were locked into the helical conformation by the hydrogen bond surrogate method. FIG. 5C is a graph of p53 activity. UMSCC47 (left) and UMSCC74A (right) cells were co-transfected with a p53 Firefly luciferase reporter plasmid and a control Renilla luciferase plasmid. After 24 hours, cells were treated with control (vehicle), CH1iA (10 μM), or CH1iB (10 μM) for 24 hours. Firefly luciferase activity was normalized to Renilla luciferase activity to control for transfection efficiency. Data is normalized to control and presented as mean±SEM. *P<0.05, n=3. […] UMSCC47 (top panel) and UMSCC74A (bottom panel) cells were treated with control (vehicle), CH1iA (10 μM), or CH1iB (10 μM) for 24 hours. mRNA expression was determined using qPCR with validated TaqMan assays. […]
FIG. 6A is a western blot showing total and acetylated p53 levels. […] UMSCC47 cells were treated with control (vehicle), CH1iB (10 μM), cis-platinum (10 μM), or CH1iB (10 μM) and cis-platinum (10 μM) for 24 hours. mRNA expression was determined using qPCR with validated TaqMan assays. […]

[2] = UMSCC47, CH1iB 10 μM with cis-platinum 10 μM

Substance | acetylated p53 levels (p53) | p53 accumulation (total p53 level) (p53) | effect of cis-platinum on p53 accumulation (p53; [2]) | effect of cis-platinum on p53 acetylation (p53; [2]) | cell proliferation, single-agent (UMSCC74A cells) | effect on efficacy of cis-platinum on proliferation (UMSCC74A cells) | p21, miR-34a, and miR-200c expression [1]
XELA*RALDQ-NH2 (ELXRALDQ; HBS: 4-pentenoic acid, N-allylalanine; C-terminal amide; CH1iB) [X 4-pentenoic acid, A* N-allylalanine] | enhanced | enhanced | potentiated | potentiated | no effect | did not augment | modest but significant increase
XTAA*DCEYNAR (TAXDCEYNAR; HBS: 4-pentenoic acid, N-allylalanine; CH1iA) [X 4-pentenoic acid, A* N-allylalanine, reference compound] | no effect | no effect | – | – | no effect | did not augment | –
